In experiment [1] the test system is Echinochloa crus-galli. In words: Pre-emergence herbicidal activity against Echinochloa crus-galli var. crus-galli at 400 g a.i./10a measured after 3 weeks by soil application test. Format: functional.
The subject of experiment [2] is Persicaria longiseta. Kind of experiment: Post-emergence herbicidal activity against Persicaria longiseta at 400 g a.i./10a measured after 3 weeks by foliar application test. Format: functional.
The subject of experiment [3] is Echinochloa oryzicola. In words: Pre-emergence herbicidal activity against Echinochloa oryzicola at 400 g a.i./10a measured after 3 weeks by paddy application test. The experiment is classed as functional.
The subject of experiment [4] is Echinochloa crus-galli. Kind of experiment: Post-emergence herbicidal activity against Echinochloa crus-galli var. crus-galli at 400 g a.i./10a measured after 3 weeks by foliar application test. The experiment is classed as functional.
For experiment [5], the system named is Digitaria ciliaris. In words: Pre-emergence herbicidal activity against Digitaria ciliaris at 400 g a.i./10a measured after 3 weeks by soil application test. Format: functional.
The subject of experiment [6] is Chenopodium album. Kind of experiment: Post-emergence herbicidal activity against Chenopodium album at 400 g a.i./10a measured after 3 weeks by foliar application test. The experiment is classed as functional.
Experiment [7] relates to Chenopodium album. In words: Pre-emergence herbicidal activity against Chenopodium album at 400 g a.i./10a measured after 3 weeks by soil application test. Format: functional.
The subject of experiment [8] is Amaranthus blitum subsp. oleraceus. In words: Pre-emergence herbicidal activity against Amaranthus blitum subsp. Oleraceus at 400 g a.i./10a measured after 3 weeks by soil application test. Format: functional.
In experiment [9] the test system is Digitaria ciliaris. Kind of experiment: Post-emergence herbicidal activity against Digitaria ciliaris at 400 g a.i./10a measured after 3 weeks by foliar application test. Format: functional.
In experiment [10] the test system is Pontederia vaginalis. Kind of experiment: Pre-emergence herbicidal activity against Monochoria vaginalis at 400 g a.i./10a measured after 3 weeks by paddy application test. Format: functional.
For experiment [11], the system named is Schoenoplectiella juncoides. In words: Pre-emergence herbicidal activity against Schoenoplectiella juncoides var. Hotarui Ohwi at 400 g a.i./10a measured after 3 weeks by paddy application test. The experiment is classed as functional.
Experiment [12] deals with Rotala indica. In words: Pre-emergence herbicidal activity against Rotala indica at 400 g a.i./10a measured after 3 weeks by paddy application test. The experiment is classed as functional.
In experiment [13] the test system is Chenopodium album. In words: Pre-emergence herbicidal activity against Chenopodium album at 800 g a.i./10a measured after 3 weeks by soil application test. The experiment is classed as functional.
Experiment [14] deals with Echinochloa oryzicola. In words: Pre-emergence herbicidal activity against Echinochloa oryzicola at 800 g a.i./10a measured after 3 weeks by paddy application test. Format: functional.
The test system of experiment [15] is Digitaria ciliaris. Kind of experiment: Pre-emergence herbicidal activity against Digitaria ciliaris at 800 g a.i./10a measured after 3 weeks by soil application test. Format: functional.
Experiment [16] relates to Echinochloa crus-galli. In words: Pre-emergence herbicidal activity against Echinochloa crus-galli var. crus-galli at 800 g a.i./10a measured after 3 weeks by soil application test. The experiment is classed as functional.
Experiment [17] concerns Rotala indica. Kind of experiment: Pre-emergence herbicidal activity against Rotala indica at 800 g a.i./10a measured after 3 weeks by paddy application test. Format: functional.
Experiment [18] concerns Schoenoplectiella juncoides. Kind of experiment: Pre-emergence herbicidal activity against Schoenoplectiella juncoides var. Hotarui Ohwi at 800 g a.i./10a measured after 3 weeks by paddy application test. The experiment is classed as functional.
Experiment [19] deals with Pontederia vaginalis. In words: Pre-emergence herbicidal activity against Monochoria vaginalis at 800 g a.i./10a measured after 3 weeks by paddy application test. Format: functional.
The subject of experiment [20] is Persicaria longiseta. In words: Pre-emergence herbicidal activity against Persicaria longiseta at 400 g a.i./10a measured after 3 weeks by soil application test. The experiment is classed as functional.
Experiment [21] concerns the target Photosystem II D1 protein (psbA) (Spinacia oleracea). In words: Inhibition of photosynthetic electron transport activity in Spinacia oleracea thylakoids assessed as inhibition of oxygen release.
Experiment [22] concerns Chenopodium album. In words: Pre-emergence herbicidal activity against Chenopodium album at 100 g a.i./10a measured after 3 weeks by soil application test. Format: functional.
Experiment [23] concerns Digitaria ciliaris. In words: Pre-emergence herbicidal activity against Digitaria ciliaris at 100 g a.i./10a measured after 3 weeks by soil application test. The experiment is classed as functional.
The subject of experiment [24] is Echinochloa crus-galli. Kind of experiment: Pre-emergence herbicidal activity against Echinochloa crus-galli var. crus-galli at 100 g a.i./10a measured after 3 weeks by soil application test. Format: functional.
The test system of experiment [25] is Amaranthus blitum subsp. oleraceus. Kind of experiment: Pre-emergence herbicidal activity against Amaranthus blitum subsp. Oleraceus at 100 g a.i./10a measured after 3 weeks by soil application test. The experiment is classed as functional.

With `Cc1nc(NCc2ccc(Cl)cc2)nc(C(F)(F)F)n1`, the Activity in the experiment with Echinochloa crus-galli [1] came to 3%; with Persicaria longiseta [2], 6%; in the experiment on Echinochloa oryzicola [3], 6%; with Echinochloa crus-galli [4] it was 4%; with Digitaria ciliaris [5], 5%; in the experiment on Chenopodium album [6] it was 6%. For the same molecule, the Activity with Chenopodium album [7] was determined as 5%; in experiment [8] it was 6%; in the experiment with Digitaria ciliaris [9] it was 6%; in the experiment on Pontederia vaginalis [10] it was 6%; in experiment [11], 6%; in the experiment on Rotala indica [12], 6%.
`Cc1nc(C)nc(NCc2ccccc2)n1`: the Activity is 0% in the experiment on Chenopodium album [13]; 3% in the experiment with Echinochloa oryzicola [14]; 0% in the experiment with Digitaria ciliaris [15]; 0% with Persicaria longiseta [2]; 0% in the experiment with Echinochloa crus-galli [4]; 0% in the experiment on Chenopodium album [6]. Moreover, the Activity in the experiment with Echinochloa crus-galli [16] is on record as 0%; with Rotala indica [17], 1%; in the experiment on Digitaria ciliaris [9], 0%; in experiment [18], 0%; in the experiment with Pontederia vaginalis [19] it was 6%.
Take `Cc1nc(NCc2ccccc2)nc(C(F)F)n1`: the Activity in the experiment on Echinochloa crus-galli [1] worked out at 5%; in the experiment with Persicaria longiseta [2], 6%; in the experiment on Echinochloa oryzicola [3], 4%; with Echinochloa crus-galli [4] it was 3%; with Digitaria ciliaris [5] it was 4%; in the experiment on Chenopodium album [6], 6%. The Activity in the experiment with Persicaria longiseta [20] is listed as 6%; in the experiment with Chenopodium album [7] it was 6%; in experiment [8], 4%; with Digitaria ciliaris [9], 4%; in the experiment with Pontederia vaginalis [10], 6%; in [11] it was 5%. Moreover, the Activity with Rotala indica [12] turned out to be 5%.
Consider `Cc1nc(CF)nc(NCc2ccc(Br)cc2)n1`, for which the Activity in the experiment with Echinochloa crus-galli [1] is 4%; in the experiment with Persicaria longiseta [2], 6%; in the experiment on Echinochloa oryzicola [3] it was 5%; in the experiment on Echinochloa crus-galli [4], 4%; with Digitaria ciliaris [5], 4%; with Chenopodium album [6], 6%. For the same molecule, the Activity (in the experiment with Persicaria longiseta [20]; in the experiment with Chenopodium album [7]; in experiment [8]; in the experiment on Digitaria ciliaris [9]; in the experiment with Pontederia vaginalis [10]; in [11]) was 5% in each case. This molecule also gave an Activity in the experiment with Rotala indica [12] of 6%.
For the molecule `Cc1nc(NCc2ccc([N+](=O)[O-])cc2)nc(C(F)F)n1`, the Activity with Echinochloa crus-galli [1] was 4%; in the experiment with Persicaria longiseta [2] it was 6%; in the experiment with Echinochloa oryzicola [3], 5%; in the experiment on Echinochloa crus-galli [4], 4%; in the experiment with Digitaria ciliaris [5] it was 4%; in the experiment with Chenopodium album [6], 6%. The Activity (in the experiment with Persicaria longiseta [20]; in the experiment on Chenopodium album [7]; in [8]; with Digitaria ciliaris [9]; in the experiment with Pontederia vaginalis [10]; in [11]) was 5% in each case. Besides, the Activity with Rotala indica [12] is on record as 6%.
As to `Cc1ccc(CNc2nc(C)nc(C(F)(F)F)n2)cc1`, the pI50 in experiment [21] worked out at 6.74.
In the case of `CCNc1nc(Cl)nc(NCC)n1` [SIMAZINE], the Activity was found to be 2% in the experiment with Chenopodium album [22], 3% in the experiment on Digitaria ciliaris [23], 2% with Echinochloa crus-galli [24] and 5% in experiment [25].
As to `Cc1nc(NCc2ccc(Cl)cc2)nc(C(F)F)n1`, the Activity in the experiment on Echinochloa crus-galli [1] is on record as 4%; in the experiment on Persicaria longiseta [2] it was 6%; in the experiment with Echinochloa oryzicola [3] it was 5%; with Echinochloa crus-galli [4] it was 6%; in the experiment with Digitaria ciliaris [5], 5%; with Chenopodium album [6], 6%. In addition, the Activity came to 6% in the experiment with Persicaria longiseta [20]; 6% with Chenopodium album [7]; 5% in [8]; 6% with Digitaria ciliaris [9]; 6% in the experiment on Pontederia vaginalis [10]; 6% in experiment [11]. Also, the Activity in the experiment with Rotala indica [12] is given as 6%.
In the case of `Cc1nc(NCc2cccc(Cl)c2)nc(C(F)(F)F)n1`, the pI50 in experiment [21] was 7.21.
`Cc1nc(NCc2ccccc2)nc(C(F)(F)F)n1`: the Activity in the experiment on Echinochloa crus-galli [1] was determined as 2%; with Echinochloa oryzicola [3], 3%; with Echinochloa crus-galli [4] it was 3%; in the experiment on Digitaria ciliaris [5] it was 3%; in the experiment with Chenopodium album [6], 6%; in the experiment with Chenopodium album [7] it was 6%. The Activity in [8] is reported as 4%; in the experiment on Digitaria ciliaris [9], 4%; in the experiment on Pontederia vaginalis [10] it was 6%; in [11] it was 0%; in the experiment with Rotala indica [12], 4%.
Turning to `Cc1ccc(CNc2nc(C)nc(C(F)F)n2)cc1`, the Activity is 3% with Echinochloa crus-galli [1]; 6% in the experiment with Persicaria longiseta [2]; 4% in the experiment with Echinochloa oryzicola [3]; 4% with Echinochloa crus-galli [4]; 4% in the experiment with Digitaria ciliaris [5]; 6% in the experiment with Chenopodium album [6]. The Activity with Persicaria longiseta [20] stood at 5%; with Chenopodium album [7], 5%; in [8] it was 4%; in the experiment with Digitaria ciliaris [9] it was 4%; in the experiment with Pontederia vaginalis [10] it was 5%; in experiment [11] it was 5%. Moreover, the Activity in the experiment on Rotala indica [12] was found to be 5%.
For `Cc1nc(CF)nc(NCc2ccc(Cl)cc2)n1`, the Activity came out at 3% with Echinochloa crus-galli [1]; 6% in the experiment with Persicaria longiseta [2]; 5% in the experiment on Echinochloa oryzicola [3]; 4% with Echinochloa crus-galli [4]; 3% in the experiment with Digitaria ciliaris [5]; 6% in the experiment on Chenopodium album [6]. In addition, the Activity came to 4% in the experiment with Persicaria longiseta [20]; 5% with Chenopodium album [7]; 4% in experiment [8]; 4% in the experiment on Digitaria ciliaris [9]; 5% with Pontederia vaginalis [10]; 4% in [11]. This molecule registered an Activity in the experiment with Rotala indica [12] of 6%.
As for `Cc1nc(NCc2ccc([N+](=O)[O-])cc2)nc(C(F)(F)F)n1`, the pI50 in experiment [21] is 7.16.
For the molecule `Cc1nc(NCc2ccc(Br)cc2)nc(C(F)F)n1`, the Activity worked out at 4% in the experiment with Echinochloa crus-galli [1]; 6% in the experiment on Persicaria longiseta [2]; 6% in the experiment on Echinochloa oryzicola [3]; 6% with Echinochloa crus-galli [4]; 5% with Digitaria ciliaris [5]; 6% with Chenopodium album [6]. Besides, the Activity in the experiment on Persicaria longiseta [20] is 6%; in the experiment with Chenopodium album [7], 6%; in experiment [8], 5%; with Digitaria ciliaris [9], 6%; with Pontederia vaginalis [10] it was 6%; in [11], 6%. In the experiment on Rotala indica [12], this molecule displayed an Activity of 6%.
Turning to `Cc1nc(NCc2ccc(Br)cc2)nc(C(F)(F)F)n1`, the Activity in the experiment on Echinochloa crus-galli [1] is given as 5%; in the experiment on Persicaria longiseta [2], 6%; with Echinochloa oryzicola [3], 4%; with Echinochloa crus-galli [4] it was 4%; in the experiment with Digitaria ciliaris [5], 5%; in the experiment on Chenopodium album [6] it was 6%. Besides, the Activity with Chenopodium album [7] came out at 5%; in experiment [8], 5%; in the experiment on Digitaria ciliaris [9] it was 6%; with Pontederia vaginalis [10], 5%; in experiment [11] it was 6%; in the experiment on Rotala indica [12] it was 5%.
For `Cc1nc(CF)nc(NCc2ccccc2)n1`, the Activity in the experiment on Echinochloa crus-galli [1] turned out to be 1%; with Persicaria longiseta [2], 4%; in the experiment on Echinochloa oryzicola [3], 0%; in the experiment with Echinochloa crus-galli [4], 0%; with Digitaria ciliaris [5], 1%; in the experiment on Chenopodium album [6], 6%. Further, the Activity stood at 2% in the experiment with Persicaria longiseta [20]; 5% with Chenopodium album [7]; 4% in experiment [8]; 1% in the experiment on Digitaria ciliaris [9]; 0% with Pontederia vaginalis [10]; 0% in experiment [11]. The Activity in the experiment with Rotala indica [12] turned out to be 0%.
In the case of `Cc1nc(NCc2cccc(Cl)c2)nc(C(F)F)n1`, the Activity in the experiment with Echinochloa crus-galli [1] is reported as 4%; with Persicaria longiseta [2], 6%; with Echinochloa oryzicola [3] it was 4%; in the experiment on Echinochloa crus-galli [4], 3%; with Digitaria ciliaris [5] it was 4%; in the experiment with Chenopodium album [6], 6%. In addition, the Activity in the experiment on Persicaria longiseta [20] was found to be 5%; in the experiment with Chenopodium album [7], 5%; in experiment [8] it was 4%; in the experiment with Digitaria ciliaris [9], 4%; in the experiment with Pontederia vaginalis [10], 5%; in experiment [11], 5%. In the experiment on Rotala indica [12], the Activity turned out to be 5%.

Source of the values: ChEMBL document CHEMBL3046860, “Photosynthetic Electron Transport Inhibitory and Herbicidal Activities of 2-(Fluorinated methyl-4-benzylamino-6-methyl)-1, 3, 5-triazines” (J Pestic Sci, 2000).
